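Five compound concentrations were applied to cells in 96-well plates for 48 hours; endpoints were derived by simple linear interpolation of the resulting dose-response curve. Definition used: TGI = concentration required for complete inhibition of growth.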
Experiments:
Experiment in all cases: growth of human tumour cells (NCI), 48 h
[1] = system: HOP-92 NSCLC
[2] = system: HT29 colon
[3] = system: KM12 colon
[4] = system: M14 melanoma
[5] = system: MALME-3M melanoma
[6] = system: MCF7 breast
[7] = system: MDA-MB-231 breast
[8] = system: MOLT-4 leukemia
[9] = system: NCI/ADR-RES ovarian
[10] = system: OVCAR-4 ovarian
[11] = system: OVCAR-5 ovarian
[12] = system: PC-3 prostate
[13] = system: SF-268 CNS
[14] = system: SF-295 CNS
[15] = system: SK-MEL-5 melanoma
[16] = system: SN12C renal
[17] = system: SNB-75 CNS
[18] = system: SW-620 colon
[19] = system: U251 CNS
[20] = system: UACC-62 melanoma

| SMILES | TGI [1] [µM] | TGI [2] [µM] | TGI [3] [µM] | TGI [4] [µM] | TGI [5] [µM] | TGI [6] [µM] | TGI [7] [µM] | TGI [8] [µM] | TGI [9] [µM] | TGI [10] [µM] | TGI [11] [µM] | TGI [12] [µM] | TGI [13] [µM] | TGI [14] [µM] | TGI [15] [µM] | TGI [16] [µM] | TGI [17] [µM] | TGI [18] [µM] | TGI [19] [µM] | TGI [20] [µM] |
| --- | --- | --- | --- | --- | --- | --- | --- | --- | --- | --- | --- | --- | --- | --- | --- | --- | --- | --- | --- | --- |
| CC(C)=CCC[C@@H](C)C1=C(O)C(O)C(C)=C2N=C(c3ccccc3)C(=O)OC21 (stereo not given in full) | > 7.8 | 18.5 | > 18.3 | > 17.8 | 15.4 | > 25 | 17.3 | > 19.3 | 3.13 | > 25 | > 25 | > 25 | > 25 | > 10.9 | 6.32 | > 25 | > 19.3 | > 25 | > 25 | 5.95 |
| CSc1nc(C)c2c(n1)SCC2 | > 10 | > 10 | > 10 | > 10 | > 10 | > 10 | > 10 | > 10 | > 10 | > 10 | > 10 | > 10 | > 10 | > 10 | > 10 | > 10 | > 10 | > 10 | > 10 | > 10 |
| N#C/C(=C\c1cn(Cc2ccccc2)c2ccccc12)c1nn(-c2ccccc2)c(N)c1C#N | 27.2 | 27.3 | > 100 | 46.1 | 47.4 | > 100 | 14.2 | > 100 | 49 | 13.7 | 51.5 | 19.8 | 91.7 | 26.4 | 23.6 | 38.7 | 15.3 | 36.3 | 26.5 | 23.6 |
| COc1ccc2cc(CNCCCCCCCCCCCCNCc3ccc4cc(OC)ccc4c3)ccc2c1 | 47.5 | 23 | 40.1 | 35.9 | 31.8 | 31.9 | > 51.5 | > 58.9 | 43 | 41.3 | > 57.1 | > 55.4 | 27.2 | 42.2 | > 54 | 46.9 | 28.7 | > 51.9 | 43.8 | 38.4 |
| COc1cc(S(=O)(=O)Nc2nc(-c3ccc(N4C(=O)C(CC(=O)O)SC4c4ccccc4O)cc3)cs2)ccc1Cl (stereo not given) | > 100 | > 100 | > 100 | > 100 | > 100 | > 100 | > 100 | > 100 | > 100 | > 100 | > 100 | > 100 | > 100 | > 100 | > 100 | > 100 | > 100 | > 100 | > 100 | > 100 |
| Cc1oc2c(c1C)S(=O)(=O)C(C#N)C(c1ccccc1)N2 (stereo not given) | > 100 | > 100 | > 100 | > 100 | > 100 | > 100 | > 100 | 65.5 | > 100 | > 100 | > 100 | > 100 | > 100 | > 100 | > 100 | > 100 | > 100 | > 100 | > 100 | > 100 |
| CC12CCC3[C@@H](CC3(C)C)C(O)(CCC1=O)C2 (stereo not given in full) | > 100 | > 100 | > 100 | > 100 | > 100 | > 100 | > 100 | > 100 | > 100 | > 100 | > 100 | > 100 | > 100 | > 100 | > 100 | > 100 | > 100 | > 100 | > 100 | > 100 |
| CN(C)c1ccc(/C=N\NC(=O)c2ccccc2Nc2ccccc2C(=O)N/N=C/c2ccc(N(C)C)cc2)cc1 | > 100 | > 100 | > 100 | 95.9 | 98 | > 100 | 67.8 | > 100 | > 100 | > 100 | > 100 | > 100 | > 100 | > 100 | > 100 | > 100 | > 100 | > 100 | > 100 | > 100 |
| O=c1[nH]c(C23CC4CC(CC(C4)C2)C3)cc2c1c(=O)oc1ccccc12 | 6.48 | 15.7 | > 96 | 39.6 | 13.7 | > 41 | 10.8 | > 100 | 18.9 | 14 | 22.8 | 10.5 | 9.52 | 12.9 | 18.3 | 38.5 | 9.52 | > 51.8 | 7.55 | > 49.8 |
| COc1cc(OCc2nc3ccccc3n3cccc23)cc(OC)c1OC | > 100 | > 100 | > 50.6 | > 78.3 | > 74.4 | 37.6 | > 100 | 14.3 | > 80.4 | > 63 | > 100 | > 100 | > 100 | > 100 | 9.35 | > 88.9 | > 100 | > 54.5 | > 100 | > 72.3 |

From PubChem BioAssay (NCI)
